{"source": "patent US9663508B2", "about": "“Biaryl acyl-sulfonamide compounds as sodium channel inhibitors” (AMGEN INC., priority 2013, dated 2017)"}
{"molecular_target": "human Nav1.7 (Homo sapiens (Human), UniProt Q15858)", "sequence (Q15858 whole entry)": "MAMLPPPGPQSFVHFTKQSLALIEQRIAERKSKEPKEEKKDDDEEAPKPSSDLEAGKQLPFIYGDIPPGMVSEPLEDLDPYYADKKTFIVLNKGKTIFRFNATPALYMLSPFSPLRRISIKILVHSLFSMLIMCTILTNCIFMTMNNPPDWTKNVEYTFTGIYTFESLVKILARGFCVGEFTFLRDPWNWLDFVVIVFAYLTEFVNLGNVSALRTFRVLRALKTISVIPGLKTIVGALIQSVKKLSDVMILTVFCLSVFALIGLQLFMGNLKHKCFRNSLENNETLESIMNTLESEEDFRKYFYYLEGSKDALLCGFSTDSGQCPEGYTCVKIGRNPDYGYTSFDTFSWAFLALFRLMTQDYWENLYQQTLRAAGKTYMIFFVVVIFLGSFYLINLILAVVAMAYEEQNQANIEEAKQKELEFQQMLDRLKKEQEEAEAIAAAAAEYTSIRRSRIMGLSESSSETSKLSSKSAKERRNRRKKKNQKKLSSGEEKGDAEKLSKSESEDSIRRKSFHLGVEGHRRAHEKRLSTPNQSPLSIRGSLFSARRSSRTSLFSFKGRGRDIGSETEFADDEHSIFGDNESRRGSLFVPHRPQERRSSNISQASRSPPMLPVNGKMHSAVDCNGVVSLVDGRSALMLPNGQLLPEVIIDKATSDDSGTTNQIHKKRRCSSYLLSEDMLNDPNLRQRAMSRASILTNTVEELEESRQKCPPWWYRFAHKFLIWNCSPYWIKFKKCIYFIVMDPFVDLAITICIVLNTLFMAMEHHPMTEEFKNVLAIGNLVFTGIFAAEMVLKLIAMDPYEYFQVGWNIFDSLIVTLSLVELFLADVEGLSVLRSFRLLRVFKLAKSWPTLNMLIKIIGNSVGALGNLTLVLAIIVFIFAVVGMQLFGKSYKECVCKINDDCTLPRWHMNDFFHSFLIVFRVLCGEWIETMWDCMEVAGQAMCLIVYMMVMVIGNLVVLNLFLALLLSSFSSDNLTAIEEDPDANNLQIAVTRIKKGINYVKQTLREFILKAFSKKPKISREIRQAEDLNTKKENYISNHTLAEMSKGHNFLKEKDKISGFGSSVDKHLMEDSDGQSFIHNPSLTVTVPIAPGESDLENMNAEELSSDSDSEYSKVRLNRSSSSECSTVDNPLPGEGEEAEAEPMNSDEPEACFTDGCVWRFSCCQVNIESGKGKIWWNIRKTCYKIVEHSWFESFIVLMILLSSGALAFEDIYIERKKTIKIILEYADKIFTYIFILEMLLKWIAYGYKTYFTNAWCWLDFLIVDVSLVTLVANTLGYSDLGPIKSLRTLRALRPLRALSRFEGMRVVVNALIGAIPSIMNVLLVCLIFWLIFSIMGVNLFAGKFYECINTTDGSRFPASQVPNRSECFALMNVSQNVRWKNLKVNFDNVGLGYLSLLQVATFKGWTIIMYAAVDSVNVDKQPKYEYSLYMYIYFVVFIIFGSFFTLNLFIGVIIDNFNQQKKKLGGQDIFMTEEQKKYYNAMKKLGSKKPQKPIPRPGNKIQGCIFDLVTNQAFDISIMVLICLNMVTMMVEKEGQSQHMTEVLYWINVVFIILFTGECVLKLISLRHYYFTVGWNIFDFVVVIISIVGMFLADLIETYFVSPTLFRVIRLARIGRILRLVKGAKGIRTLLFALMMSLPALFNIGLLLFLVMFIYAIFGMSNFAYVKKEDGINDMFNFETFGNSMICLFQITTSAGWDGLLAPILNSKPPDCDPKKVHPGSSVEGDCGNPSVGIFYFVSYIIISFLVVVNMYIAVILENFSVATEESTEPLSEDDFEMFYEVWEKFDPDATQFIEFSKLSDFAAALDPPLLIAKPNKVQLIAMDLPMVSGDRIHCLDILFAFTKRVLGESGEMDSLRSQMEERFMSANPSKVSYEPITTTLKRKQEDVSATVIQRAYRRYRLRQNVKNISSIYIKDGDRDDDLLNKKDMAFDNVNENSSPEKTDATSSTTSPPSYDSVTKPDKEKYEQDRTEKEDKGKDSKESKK", "assay": "Nav 1.7 in vitro PatchXpress (PX) assay", "type": "cell-based", "conditions": "not given", "units": {"IC50": "nM"}}
{"smiles": "COc1cc(C(=O)NS(C)(=O)=O)c(F)cc1-c1cnc(N(C)C2CCC2)c(Cl)c1", "note": "[Example 697, 4-(5-chloro-6-(cyclobutyl(methyl)amino)-3-pyridinyl)-2-fluoro-5-methoxy-N-(methylsulfonyl)benzamide]", "IC50": 146}
{"smiles": "COc1cc(C(=O)NS(C)(=O)=O)ccc1-c1cnc(Oc2ccc(C)cc2Cl)c(Cl)c1", "note": "[Example 344, 4-(5-chloro-6-(2-chloro-4-methylphenoxy)-3-pyridinyl)-3-methoxy-N-(methylsulfonyl)benzamide]", "IC50": 91.5}
{"smiles": "Cc1cc(C(=O)NS(C)(=O)=O)c(F)cc1-c1cnc(Oc2cccc3c2CCCC3)c(Cl)c1", "note": "[Example 610, 4-(5-chloro-6-(5,6,7,8-tetrahydro-1-naphthalenyloxy)-3-pyridinyl)-2-fluoro-5-methyl-N-(methylsulfonyl)benzamide]", "IC50": 104}
{"smiles": "Cc1ccc(Oc2ncc(-c3ccc(C(=O)NS(C)(=O)=O)cc3OC(F)F)cc2Cl)cc1Cl", "note": "[Example 449, 4-(5-chloro-6-(3-chloro-4-methylphenoxy)-3-pyridinyl)-3-(difluoromethoxy)-N-(methylsulfonyl)benzamide]", "IC50": 79.2}
{"smiles": "CC[C@@H](Oc1ncc(-c2cc(F)c(C(=O)NS(C)(=O)=O)cc2C)cc1Cl)c1ccc(C)cc1", "note": "[Example 685, 4-(5-chloro-6-(((1R)-1-(4-methylphenyl)propyl)oxy)-3-pyridinyl)-2-fluoro-5-methyl-N-(methylsulfonyl)benzamide, 4-(5-chloro-6-(((1S)-1-(4-methylphenyl)propyl)oxy)-3-pyridinyl)-2-fluoro-5-methyl-N-(methylsulfonyl)benzamide]", "IC50": 88.1}
{"smiles": "CS(=O)(=O)NC(=O)c1ccc(-c2cnc(OCCc3ccccc3)c(Cl)c2)c(OC(F)F)c1", "note": "[Example 467, 4-(5-chloro-6-(2-phenylethoxy)-3-pyridinyl)-3-(difluoromethoxy)-N-(methylsulfonyl)benzamide]", "IC50": 78.8}
{"smiles": "Cc1cccc(Cl)c1Oc1ncc(-c2ccc(C(=O)NS(C)(=O)=O)cc2OC2COC2)cc1Cl", "note": "[Example 426, 4-(5-chloro-6-(2-chloro-6-methylphenoxy)-3-pyridinyl)-N-(methylsulfonyl)-3-(3-oxetanyloxy)benzamide]", "IC50": 75}
{"smiles": "Cc1cc(Cl)cc(Cl)c1Oc1ncc(-c2cc(F)c(C(=O)NS(C)(=O)=O)cc2Cl)cc1Cl", "note": "[Example 598, 5-chloro-4-(5-chloro-6-(2,4-dichloro-6-methylphenoxy)-3-pyridinyl)-2-fluoro-N-(methylsulfonyl)benzamide]", "IC50": 18.4}
{"smiles": "COc1cc(C(=O)NS(C)(=O)=O)ccc1-c1cnc(Oc2c(C)cc(Cl)cc2Cl)c(Cl)c1", "note": "[Example 578, 4-(5-Chloro-6-(2,4-Dichloro-6-Methylphenoxy)-Pyridin-3-yl)-3-Methoxy-N-(Methylsulfonyl)Benzamide]", "IC50": 29.6}
{"smiles": "CCc1ccc(C)cc1Oc1ncc(-c2cc(F)c(C(=O)NS(C)(=O)=O)cc2C)cc1Cl", "note": "[Example 680, 4-(5-chloro-6-(2-ethyl-5-methylphenoxy)-3-pyridinyl)-2-fluoro-5-methyl-N-(methylsulfonyl)benzamide]", "IC50": 66.3}
{"molecular_target": "human Nav1.7 (Homo sapiens (Human), UniProt Q15858)", "assay": "Nav 1.7 in vitro PatchXpress (PX) assay", "type": "cell-based", "conditions": "at 5 µM (5 uM)", "units": {"NAV 1.7 PX inhibition": "%"}}
{"smiles": "COc1nccc(C)c1-c1cc(C(=O)NS(C)(=O)=O)ccc1-c1cnc(OCC(C)C)c(Cl)c1", "note": "[Example 820, 4-(5-Chloro-6-Isobutoxypyridin-3-yl)-3-(2-Methoxy-4-Methylpyridin-3-yl)-N-(Methylsulfonyl)Benzamide]", "NAV 1.7 PX inhibition": 23}
{"molecular_target": "human Nav1.7 (Homo sapiens (Human), UniProt Q15858)", "assay": "Nav 1.7 in vitro PatchXpress (PX) assay", "type": "cell-based", "conditions": "in-vitro Nav 1.7 PX data", "units": {"IC50": "nM"}}
{"smiles": "CCS(=O)(=O)NC(=O)c1ccc(-c2cnc(OC3CCC3)c(Cl)c2)c(OC)c1", "note": "[Example 790, 4-(5-chloro-6-(cyclobutyloxy)-3-pyridinyl)-N-(ethylsulfonyl)-3-methoxybenzamide]", "IC50": 123}
{"smiles": "COc1cc(C(=O)NS(C)(=O)=O)c(F)cc1-c1cnc(Oc2c(Cl)cccc2Cl)c(Cl)c1", "note": "[Example 764, 4-(5-chloro-6-(2,6-dichlorophenoxy)-3-pyridinyl)-2-fluoro-5-methoxy-N-(methylsulfonyl)benzamide]", "IC50": 36.7}
{"smiles": "COc1cc(C(=O)NS(C)(=O)=O)c(F)cc1-c1cnc(Sc2ccc(C)cc2)c(Cl)c1", "note": "[Example 728, 4-(5-chloro-6-((4-methylphenyl)sulfanyl)-3-pyridinyl)-2-fluoro-5-methoxy-N-(methylsulfonyl)benzamide]", "IC50": 49.5}
{"smiles": "Cc1cc(C(=O)NS(C)(=O)=O)c(F)cc1-c1cccc(OC(F)(F)C(F)F)c1", "note": "[Example 812, 5-fluoro-2-methyl-N-(methylsulfonyl)-3′-(1,1,2,2-tetrafluoroethoxy)-4-biphenylcarboxamide]", "IC50": 5840}
{"smiles": "CC(C)COc1ncc(-c2cc(F)c(C(=O)NS(C)(=O)=O)cc2F)cc1-c1cc(F)cc(F)c1", "note": "[Example 838, 4-(5-(3,5-difluorophenyl)-6-(2-methylpropoxy)-3-pyridinyl)-2,5-difluoro-N-(methylsulfonyl)benzamide]", "IC50": 642}
{"smiles": "COc1cc(C(=O)NS(C)(=O)=O)c(F)cc1-c1cnc(O[C@@H](C)C2CCC2)c(Cl)c1", "note": "(single isomer, unassigned) [Example 767]", "IC50": 77.6}
{"smiles": "COc1cc(C(=O)NS(C)(=O)=O)c(F)cc1-c1cnc(NCCC2CCCC2)c(Cl)c1", "note": "[Example 731, 4-(5-chloro-6-((2-cyclopentylethyl)amino)-3-pyridinyl)-2-fluoro-5-methoxy-N-(methylsulfonyl)benzamide]", "IC50": 106}
{"smiles": "COc1cc(C(=O)NS(C)(=O)=O)c(F)cc1-c1cnc(NC2CCC(C)(C)CC2)c(Cl)c1", "note": "[Example 724, 4-(5-chloro-6-((4,4-dimethylcyclohexyl)amino)-3-pyridinyl)-2-fluoro-5-methoxy-N-(methylsulfonyl)benzamide]", "IC50": 106}
{"smiles": "COc1cc(C(=O)NS(C)(=O)=O)c(F)cc1-c1cnc(O[C@@H]2CC[C@H]2C)c(Cl)c1", "note": "[Example 733, 4-(5-chloro-6-(((1R,2R)-2-methylcyclobutyl)oxy)-3-pyridinyl)-2-fluoro-5-methoxy-N-(methylsulfonyl)benzamide, 4-(5-chloro-6-(((1S,2S)-2-methylcyclobutyl)oxy)-3-pyridinyl)-2-fluoro-5-methoxy-N-(methylsulfonyl)benzamide]", "IC50": 220}
{"smiles": "Cc1cc(C(=O)NS(C)(=O)=O)c(F)cc1-c1cnc(Oc2cc(Cl)cc(Cl)c2)c(C(F)(F)F)c1", "note": "[Example 817, 4-(6-(3,5-Dichlorophenoxy)-5-(Trifluoromethyl)Pyridin-3-yl)-2-Fluoro-5-Methyl-N-(Methylsulfonyl)Benzamide]", "IC50": 169}
{"smiles": "COc1cc(C(=O)NS(C)(=O)=O)c(F)cc1-c1cnc(Oc2c(F)ccc(C)c2F)c(Cl)c1", "note": "[Example 759, 4-(5-chloro-6-(2,6-difluoro-3-methylphenoxy)-3-pyridinyl)-2-fluoro-5-methoxy-N-(methylsulfonyl)benzamide]", "IC50": 95.4}
{"smiles": "Cc1cc(C(=O)NS(C)(=O)=O)c(F)cc1-c1ccc(OCC(F)(F)F)cc1", "note": "[Example 810, 5-fluoro-2-methyl-N-(methylsulfonyl)-4′-(2,2,2-trifluoroethoxy)-4-biphenylcarboxamide]", "IC50": 4020}
{"smiles": "COc1cc(C(=O)NS(C)(=O)=O)c(F)cc1-c1cnc(Oc2ccc(Cl)c(Cl)c2)c(Cl)c1", "note": "[Example 755, 4-(5-chloro-6-(3,4-dichlorophenoxy)-3-pyridinyl)-2-fluoro-5-methoxy-N-(methylsulfonyl)benzamide]", "IC50": 51.5}
{"smiles": "COc1cc(C(=O)NS(C)(=O)=O)c(F)cc1-c1cnc(Oc2cc(C)ccc2Cl)c(Cl)c1", "note": "[Example 752, 4-(5-chloro-6-(2-chloro-5-methylphenoxy)-3-pyridinyl)-2-fluoro-5-methoxy-N-(methylsulfonyl)benzamide]", "IC50": 42.1}
